Assay results published in US8410289B2, “Spirocyclic 3'-alkoxytetramic acids and-tetronic acids” (Bayer Cropscience AG, priority 2004, dated 2013).
Values belong to the compound of their own block, whether it stands above or below them.

Key:
[1] = test system: Summer wheat; assay: Herbicidal post-emergence action with/without safener (Example H, container trials with cereals, greenhouse or outdoors); assay type: in vivo
Protocol: (§1) Herbicidal Post-Emergence Action
(§2) Seeds of monocotyledonous and dicotyledonous weed and crop plants are placed into sandy loam in wood fibre pots or in plastic pots, covered with soil and cultivated in a greenhouse, during the vegetation period also outdoors outside of the greenhouse, under good growth conditions. 2-3 weeks after sowing, the test plants are treated at the one- to three-leaf stage. The test compounds, formulated as wettable powders (WP) or emulsifiable concentrates (EC) are, in various dosages with a water application rate of 300 l/ha (converted), with wetting agent (0.2 to 0.3%) added, sprayed onto the plants and the surface of the soil. 3-4 weeks after the treatment of the test plants, the effect of the preparations is rated visually in comparison to untreated controls (herbicidal effect in per cent (%): 100%=the plants have died, 0% effect=like control plants).
(§3) If it is additionally to be tested as to whether safeners can improve the crop plant compatibility of test substances in the case of crop plants, the following options are used for applying the safener: • seeds of the crop plants are, before sowing, dressed with the safener substance (the amount of safener stated in per cent, based on the weight of the seed) • before the application of the test substances, the crop plants are sprayed with the safener at a certain application rate per hectare (usually 1 day before the application of the test substances) • the safener is applied together with the test substance as a tank mix (the amount of safener is stated in g/ha or as a ratio, based on the herbicide).
(§4) By comparing the effect of the test substances on crop plants without or with safener treatment, it is possible to assess the effect of the safener substance.

[2] = test system: barley; assay: as above; assay type: in vivo
Protocol: as §1, §2, §3, §4

[3] = test system: maize; assay: Herbicidal post-emergence action with/without safener (Example H, container trials with maize in a greenhouse); assay type: in vivo; details: 12.5 g of a.i./ha, without safener
Protocol: as §1
as §2, with “plants). […]” for “plants).”

[4] = log P determination by HPLC on reverse-phase column (C 18), EEC-Directive 79/831 Annex V.A8; assay type: physicochemical; details: compounds of formula (I-2-a); generally isomer mixtures; those marked 1) were separated into cis and trans diastereomers
Protocol: • The log P values given in the tables and preparation examples above are determined in accordance with EEC-Directive 79/831 Annex V.A8 by HPLC (High Performance Liquid Chromatography) on a reverse-phase column (C 18). Temperature: 43° C.
The determination is carried out in the acidic range at pH 2.3 using the mobile phases 0.1% aqueous phosphoric acid and acetonitrile; linear gradient from 10% acetonitrile to 95% acetonitrile.
The LC-MS determination in the acidic range is carried out at pH 2.7 using the mobile phases 0.1% aqueous formic acid and acetonitrile (contains 0.1% formic acid); linear gradient from […] acetonitrile to 95% acetonitrile.
The LC-MS determination in the neutral range is carried out at pH 7.8 using the mobile phases 0.001 molar aqueous ammonium bicarbonate solution and acetonitrile; linear gradient from 10% acetonitrile to 95% acetonitrile.
The calibration is carried out using unbranched alkan-2-ones (with 3 to 16 carbon atoms) with known log P values (determination of the log P values by retention times using linear interpolation between two successive alkanones).

[5] = greenhouse, 25 g of a.i./ha, without safener
[6] = greenhouse, 50 g of a.i./ha, without safener
[7] = greenhouse, 6.25 g of a.i./ha, without safener
[8] = greenhouse, 12.5 g of a.i./ha, without safener
[9] = greenhouse, 3.125 g of a.i./ha, without safener
[10] = outdoors, 12.5 g of a.i./ha, without safener (trial with mefenpyr 1 day prior)
[11] = outdoors, 25 g of a.i./ha, without safener (tank mix trial)
[12] = outdoors, 25 g of a.i./ha, without safener (trial with mefenpyr 1 day prior)
[13] = outdoors, 50 g of a.i./ha, without safener (tank mix trial)
[14] = outdoors, 50 g of a.i./ha, without safener (trial with mefenpyr 1 day prior)
[15] = outdoors, 100 g of a.i./ha, without safener (tank mix trial), listed as Ex. I-1-a-43
[16] = outdoors, 100 g of a.i./ha, without safener (trial with mefenpyr 1 day prior)
[17] = tank mix post-emergence, 20 g of a.i./ha, without safener
[18] = tank mix post-emergence, 80 g of a.i./ha, without safener
[19] = greenhouse, 100 g of a.i./ha, without safener
[20] = outdoors, 100 g of a.i./ha, without safener (tank mix trial), listed as Ex. I-1-a-1

SMILES: CCCCOC1CCCC2(C1)NC(=O)C(c1c(Cl)cc(Br)cc1CC)=C2OC(=O)COC (single isomer, unassigned) [Ex. I-1-b-8]
Summer wheat observed (%) [1, 5]: 30%
Summer wheat observed (%) [1, 6]: 50%
Summer barley observed (%) [2, 5]: 30%
Summer barley observed (%) [2, 6]: 70%

SMILES: CCCCOC1CCCC2(C1)NC(=O)C(c1c(Br)cc(C)cc1CC)=C2O (single isomer, unassigned) [Example I-1-a-17]
Summer wheat observed (%) [1, 7]: 10%
Summer wheat observed (%) [1, 8]: 60%
Summer wheat observed (%) [1, 5]: 70%

SMILES: CCCOC1CCCC2(C1)NC(=O)C(c1c(Br)cc(C)cc1CC)=C2O (single isomer, unassigned) [Example I-1-a-12]
Summer wheat observed (%) [1, 7]: 10%
Summer wheat observed (%) [1, 8]: 97%
Summer barley observed (%) [2, 9]: 30%
Summer barley observed (%) [2, 7]: 97%
Summer barley observed (%) [2, 8]: 99%

SMILES: COC1CCCC2(C1)NC(=O)C(c1c(C)cc(C)cc1C)=C2O (mixture of isomers) [Example I-1-a-2]
Summer wheat observed (%) ([1]; container trial in a greenhouse, application rate 100 g of a.i./ha, without safener): 60%

SMILES: CCOC(=O)OC1=C(c2c(Br)cc(C)cc2CC)C(=O)NC12CCCC(OC)C2 (single isomer, unassigned) [Ex. I-1-c-10]
Summer wheat observed (%) [1, 8]: 60%
Cecilia Mais observed (%) [3]: 40%

SMILES: CCCCOC1CCCC2(C1)NC(=O)C(c1c(C)cc(C)cc1C)=C2O (single isomer, unassigned) [Example I-1-a-43]
Summer wheat observed (%) [1, 10]: 30%
Summer wheat observed (%) [1, 11]: 40%
Summer wheat observed (%) [1, 12]: 60%
Summer wheat observed (%) [1, 13]: 50%
Summer wheat observed (%) [1, 14]: 15%
Summer wheat observed (%) [1, 15]: 60%
Summer wheat observed (%) [1, 16]: 30%
Summer barley observed (%) [2, 10]: 10%
Summer barley observed (%) [2, 11]: 40%
Summer barley observed (%) [2, 12]: 70%
Summer barley observed (%) [2, 13]: 50%
Summer barley observed (%) [2, 14]: 20%
Summer barley observed (%) [2, 15]: 60%
Summer barley observed (%) [2, 16]: 30%
Summer barley (Scarlett) observed (%) [2, 17]: 30%
Winter barley observed (%) [2, 17]: 20%
Summer barley (Baronesse) observed (%) [2, 18]: 30%
Winter barley observed (%) [2, 18]: 30%

SMILES: CCOC(=O)OC1=C(c2c(Br)cc(C)cc2CC)C(=O)NC12CCCC(OCC)C2 (single isomer, unassigned) [Ex. I-1-c-9]
Summer wheat observed (%) [1, 6]: 30%
Summer wheat observed (%) [1, 19]: 60%

SMILES: CCCCOC1CCCC2(C1)NC(=O)C(c1c(Br)cc(C)cc1CC)=C2OC(=O)COC (single isomer, unassigned) [Ex. I-1-b-14]
Summer wheat observed (%) [1, 9]: 20%
Summer wheat observed (%) [1, 7]: 30%

SMILES: CCOC1CCCC2(C1)NC(=O)C(c1c(Br)cc(C)cc1CC)=C2O (single isomer, unassigned) [Example I-1-a-18]
Summer wheat observed (%) [1, 9]: 30%
Summer wheat observed (%) [1, 7]: 40%
Summer wheat observed (%) [1, 8]: 95%
Summer barley observed (%) [2, 7]: 50%
Summer barley observed (%) [2, 8]: 93%

SMILES: CCCOC1CCCC2(C1)NC(=O)C(c1c(C)cc(C)cc1C)=C2O (single isomer, unassigned) [Example I-1-a-19]
Summer barley observed (%) [2, 6]: 25%
Summer barley observed (%) [2, 19]: 30%

SMILES: CCCCOC1CCCC2(C1)NC(=O)C(c1c(C)cc(C)cc1C)=C2O (stereo not drawn) [Example I-1-a-1]
Summer wheat observed (%) [1, 20]: 35%
Summer barley observed (%) [2, 20]: 70%

logP [4]: 1.93
SMILES: COC1CCCC2(C1)OC(=O)C(c1c(Cl)cccc1Cl)=C2O (stereo not drawn) [Example I-2-a-15]

logP [4]: 2.78
SMILES: COC1CCCC2(C1)OC(=O)C(c1c(C)cc(Br)c(C)c1Br)=C2O (mixture of isomers) [Example I-2-a-47]

logP [4]: 2.21
SMILES: COC1CCCC2(C1)OC(=O)C(c1cc(C)c(C)cc1C)=C2O (stereo not drawn) [Example I-2-a-11]

SMILES: CCCCOC1CCCC2(C1)NC(=O)C(c1c(Cl)cc(Br)cc1CC)=C2OC(=O)C(C)C (single isomer, unassigned) [Ex. I-1-b-9]
Summer wheat observed (%) [1, 5]: 20%
Summer wheat observed (%) [1, 6]: 90%
Summer barley observed (%) [2, 5]: 30%
Summer barley observed (%) [2, 6]: 90%

logP [4]: 3.32
SMILES: CCCCOC1CCCC2(C1)OC(=O)C(c1ccc(C)cc1Cl)=C2O (stereo not drawn) [I-2-a-56]

logP [4]: 1.81
SMILES: COC1CCCC2(C1)OC(=O)C(c1ccccc1C)=C2O (stereo not drawn) [Example I-2-a-7]

SMILES: CCc1cc(C)cc(Br)c1C1=C(OC(=O)C(C)C)C2(CCCC(OC)C2)NC1=O (single isomer, unassigned) [Ex. I-1-b-11]
Summer wheat observed (%) [1, 5]: 10%
Summer wheat observed (%) [1, 6]: 70%

logP [4]: 2.25
SMILES: COC1CCCC2(C1)OC(=O)C(c1cc(F)c(C)cc1Br)=C2O (mixture of isomers) [I-2-a-44]

SMILES: CCc1cc(C)cc(Br)c1C1=C(O)C2(CCCC(OC)C2)NC1=O (single isomer, unassigned) [Example I-1-a-14]
Summer wheat observed (%) [1, 8]: 30%
Summer wheat observed (%) [1, 5]: 93%
Summer barley observed (%) [2, 8]: 30%
Summer barley observed (%) [2, 5]: 93%

logP [4]: 2.31
SMILES: COC1CCCC2(C1)OC(=O)C(c1ccc(Br)cc1Cl)=C2O (mixture of isomers) [Example I-2-a-37]
